Literature values, collected in patent US9340506B2, “Acetamide derivatives as glucokinase activators, their process and medicinal applications” (ADVINUS THERAPEUTICS LIMITED, priority 2007, dated 2016).

Settings: animal efficacy models; PSN-GK1 at higher dose; cited from earlier work

O=C(Nc1ncc(F)s1)[C@H](CC1CCOCC1)c1ccc(S(=O)(=O)C2CC2)cc1 [PSN-GK1]
Hypoglycemia in animal studies: hypoglycemic potential

Ro-28-1675
Hypoglycemia in animal studies: cause hypoglycemia
